# Test results reported in patent US20150368248A1, “2-SUBSTITUTED-6-BIARYLMETHYLAMINO-9-CYCLOPENTYL-9H-PURINE DERIVATIVES, USE THEREOF AS MEDICAMENTS, AND PHARMACEUTICAL COMPOSITIONS” (UNIVERZITA PALACKEHO V OLOMOUCI, priority 2013, published 2015).
# Legend:
# HepG2 = assay: MTT cytotoxicity assay (Example 30); format: cell-based; conditions: Homo sapiens, HepG2, 72 h; MTT, three days after drug addition; read-out: Inhibitory concentration IC50, HepG2
# Method in brief: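 HepG2 cells in EMEM with 10% FBS, seeded at 10000 per well, dosed next day in triplicate at various concentrations. Three days later MTT added for 4 h; formazan dissolved in DMSO and absorbance read at 570 nm.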
# CDK5/p35 = target: T1, CDK5/p35 (Homo sapiens, UniProt Q00535); assay: Kinase inhibition assay, recombinant kinase, [γ-33P]ATP; format: biochemical; conditions: read-out: Residual kinase activity, CDK5; for remaining activity at 0.1 µM: 100 nM; for remaining activity at 1 µM: 1000 nM
# T1 construct: purchased ProQinase GmbH (Freiburg, Germany)
# T1 sequence (Q00535 whole entry): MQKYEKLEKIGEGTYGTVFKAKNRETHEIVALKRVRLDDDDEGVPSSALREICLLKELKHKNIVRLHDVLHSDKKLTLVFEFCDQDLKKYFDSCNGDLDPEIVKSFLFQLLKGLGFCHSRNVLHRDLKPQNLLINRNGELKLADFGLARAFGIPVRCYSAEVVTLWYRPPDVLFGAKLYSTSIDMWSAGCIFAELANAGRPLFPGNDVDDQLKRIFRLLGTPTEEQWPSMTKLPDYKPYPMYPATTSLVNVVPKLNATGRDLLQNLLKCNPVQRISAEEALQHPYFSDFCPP
# T1 sequence (Q15078 whole entry partner): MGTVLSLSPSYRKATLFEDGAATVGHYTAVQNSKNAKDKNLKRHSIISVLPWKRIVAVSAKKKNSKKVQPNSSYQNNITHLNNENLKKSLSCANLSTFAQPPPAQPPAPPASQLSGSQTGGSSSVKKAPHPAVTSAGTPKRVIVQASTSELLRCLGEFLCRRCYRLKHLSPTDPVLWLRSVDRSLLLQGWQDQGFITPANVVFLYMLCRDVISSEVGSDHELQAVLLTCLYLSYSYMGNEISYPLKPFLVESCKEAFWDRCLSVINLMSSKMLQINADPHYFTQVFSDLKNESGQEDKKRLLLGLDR
# Protocol: (§1) CDK2/Cyclin E kinase was produced in Sf9 insect cells via baculoviral infection and purified on a NiNTA column (Qiagen). CDK5/p35, CDK7Cyclin H/MAT1 and CDK9/Cyclin T1 was purchased from ProQinase GmbH. The kinase reactions were assayed with 1 mg/mL histone H1 (for CDK2 and CDK5) or (YSPTSPS)2KK peptide (for CDK7 and CDK9) in the presence of 15/0.15/1.5/1.5 μM ATP (for CDK2/CDK5/CDK7CDK9), 0.05 μCi [γ-^33P]ATP and of the test compound in a final volume of 10 μL, all in a reaction buffer (60 mM HEPES-NaOH, pH 7.5, 3 mM MgCl2, 3 mM MnCl2, 3 μM Na-orthovanadate, 1.2 mM DTT, 2.5 μg/50 μl PEG20,000). The reactions were stopped by adding 5 μL of 3% aq H3PO4. Aliquots were spotted onto P-81 phosphocellulose (Whatman), washed 3× with 0.5% aq H3PO4 and finally air-dried.
# (§2) CDK1/cyclin B and CDK2/cyclin E kinases were produced in Sf9 insect cells via baculoviral infection, while CDK5/p35, CDK7/cyclin H/MAT1, and CDK9/cyclin T1 were purchased from ProQinase (Freiburg, Germany) and assayed as described previously (35). The kinase reactions were assayed with 1 mg/ml histone H1 (for CDK2 and CDK5) or (YSPTSPS)2KK peptide (for CDK7 and CDK9) in the presence of 15/0.15/1.5/1.5 […] ATP (for CDK2/CDK5/CDK7CDK9), […] [γ-^33P]ATP and of the test compound in a final volume of […]. The reaction buffer contained 60 mM HEPES-NaOH, pH 7.5, 3 mM MgCl2, 3 mM MnCl2, 3 mM Na-orthovanadate, 1.2 mM DTT, 2.5 mg/50 ml PEG20.000. The reactions were stopped by adding […] of 3% H3PO4. Aliquots were spotted onto P-81 phosphocellulose (Whatman, GE Healthcare Biosciences, Pittsburgh, USA), washed 3 times with 0.5% H3PO4 and finally air-dried. Kinase inhibition was quantified using a FLA-7000 digital image analyzer (Fujifilm, Tokyo, Japan).
# CDK9/Cyclin T1 = target: T2, CDK9/Cyclin T1 (Homo sapiens, UniProt P50750); assay: as above; format: biochemical; conditions: read-out: Residual kinase activity, CDK9; for remaining activity at 0.1 µM: 100 nM; for remaining activity at 1 µM: 1000 nM
# T2 construct: purchased ProQinase GmbH (Freiburg, Germany)
# T2 sequence (P50750 whole entry): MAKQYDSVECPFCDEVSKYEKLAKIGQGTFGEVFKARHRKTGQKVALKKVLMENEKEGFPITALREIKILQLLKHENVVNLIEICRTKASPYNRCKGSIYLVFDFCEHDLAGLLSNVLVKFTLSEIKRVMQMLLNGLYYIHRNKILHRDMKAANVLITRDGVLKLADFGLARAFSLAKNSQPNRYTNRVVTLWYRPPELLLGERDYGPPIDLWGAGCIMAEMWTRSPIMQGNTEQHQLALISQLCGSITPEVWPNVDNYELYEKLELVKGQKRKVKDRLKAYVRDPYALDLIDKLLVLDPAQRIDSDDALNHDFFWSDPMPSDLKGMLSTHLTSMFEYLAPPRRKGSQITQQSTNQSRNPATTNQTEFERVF
# T2 sequence (O60563 whole entry partner): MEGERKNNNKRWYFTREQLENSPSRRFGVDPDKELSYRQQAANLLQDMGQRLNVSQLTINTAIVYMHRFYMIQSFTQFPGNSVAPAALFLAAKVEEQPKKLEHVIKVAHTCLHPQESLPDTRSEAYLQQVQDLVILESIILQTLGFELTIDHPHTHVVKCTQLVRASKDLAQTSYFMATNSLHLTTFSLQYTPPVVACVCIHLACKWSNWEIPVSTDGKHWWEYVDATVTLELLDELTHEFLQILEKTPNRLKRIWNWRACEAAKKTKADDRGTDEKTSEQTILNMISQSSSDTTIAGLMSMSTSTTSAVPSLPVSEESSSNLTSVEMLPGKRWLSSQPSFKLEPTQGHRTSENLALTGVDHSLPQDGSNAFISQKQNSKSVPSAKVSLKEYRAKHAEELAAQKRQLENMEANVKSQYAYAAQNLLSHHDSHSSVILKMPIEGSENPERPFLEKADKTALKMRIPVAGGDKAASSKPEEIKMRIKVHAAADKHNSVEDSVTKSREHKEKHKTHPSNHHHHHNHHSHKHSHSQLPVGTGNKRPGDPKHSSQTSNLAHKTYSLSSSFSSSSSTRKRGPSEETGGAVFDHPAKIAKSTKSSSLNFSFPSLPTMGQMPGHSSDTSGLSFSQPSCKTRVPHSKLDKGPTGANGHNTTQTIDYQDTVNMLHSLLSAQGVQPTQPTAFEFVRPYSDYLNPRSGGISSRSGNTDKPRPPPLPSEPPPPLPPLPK
# Protocol: as §1, §2
# CDK7/cyclin H/MAT1 = target: T3, CDK7/cyclin H/MAT1 (Homo sapiens, UniProt P50613); assay: as above; format: biochemical; conditions: read-out: Residual kinase activity, CDK7; for remaining activity at 0.1 µM: 100 nM; for remaining activity at 1 µM: 1000 nM
# T3 construct: purchased ProQinase GmbH (Freiburg, Germany)
# T3 sequence (P50613 whole entry): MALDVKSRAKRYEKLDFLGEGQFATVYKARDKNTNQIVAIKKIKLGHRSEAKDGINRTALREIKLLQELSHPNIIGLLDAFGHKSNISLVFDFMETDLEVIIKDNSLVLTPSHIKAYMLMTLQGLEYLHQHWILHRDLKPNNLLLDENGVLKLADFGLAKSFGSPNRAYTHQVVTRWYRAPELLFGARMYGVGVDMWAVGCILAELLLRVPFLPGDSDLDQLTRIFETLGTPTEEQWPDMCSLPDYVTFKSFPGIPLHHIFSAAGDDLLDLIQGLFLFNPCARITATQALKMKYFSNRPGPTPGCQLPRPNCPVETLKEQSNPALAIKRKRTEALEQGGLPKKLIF
# T3 sequence (P51946 whole entry partner): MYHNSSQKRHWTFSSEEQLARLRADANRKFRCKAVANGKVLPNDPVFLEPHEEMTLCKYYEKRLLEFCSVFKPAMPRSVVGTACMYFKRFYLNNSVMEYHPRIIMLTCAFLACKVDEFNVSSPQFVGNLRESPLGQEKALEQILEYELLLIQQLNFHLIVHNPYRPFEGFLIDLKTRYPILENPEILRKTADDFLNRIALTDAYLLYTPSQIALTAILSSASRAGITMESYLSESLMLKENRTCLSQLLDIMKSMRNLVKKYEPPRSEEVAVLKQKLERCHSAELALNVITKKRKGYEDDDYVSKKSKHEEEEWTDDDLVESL
# T3 sequence (P51948 whole entry partner): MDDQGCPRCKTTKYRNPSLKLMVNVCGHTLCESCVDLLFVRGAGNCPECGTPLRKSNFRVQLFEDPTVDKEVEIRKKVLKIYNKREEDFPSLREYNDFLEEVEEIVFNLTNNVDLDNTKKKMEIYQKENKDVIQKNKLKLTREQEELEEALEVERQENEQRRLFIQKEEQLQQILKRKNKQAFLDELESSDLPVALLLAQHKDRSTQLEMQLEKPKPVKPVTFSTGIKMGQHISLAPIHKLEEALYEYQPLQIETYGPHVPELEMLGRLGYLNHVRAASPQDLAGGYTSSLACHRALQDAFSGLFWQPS
# Protocol: as §1, §2
# [1] = tested on: p53-regulated transcription in Arn8 cells; assay: p53-dependent transcriptional activity, β-galactosidase reporter; format: cell-based; conditions: 24 h incubation
# Method in brief: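 Arn8 melanoma cells stably carrying the p53-responsive pRGCAfoslacZ reporter, exposed to compounds for 24 h. Cells permeabilised with 0.3% Triton X-100 for 15 min, then given 80 μM 4-methylumbelliferyl-β-D-galactopyranoside. β-Galactosidase product fluorescence read after 1 h at 355/460 nm.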
# [2] = tested on: human umbilical vein endothelial cells (HUVECs); assay: Migration scratch assay; format: cell-based; design: key to Wound area: ++: open; +: partly open; 0: closed; conditions: for Wound area: 24 h; for inhibition of migration (in words): 24 h treatment
# Protocol: Migration assay was performed as described previously (Krystof et al., 2011, Eur J Med Chem.; 46(9):4289-94). Briefly, confluent HUVECs were scratched and immediately treated for 24 h with various doses of compounds. After incubation each well was photographed using a DP Controller system (Olympus) connected to a Olympus BX50 microscope. Migration was expressed as the proportion of pixels of the wound area in the image that were not covered by cells using “in house” software.
SMILES,IC50 (HepG2) [nM],remaining activity at 0.1 µM (CDK5/p35) [%],remaining activity at 1 µM (CDK5/p35) [%],remaining activity at 0.1 µM (CDK9/Cyclin T1) [%],remaining activity at 1 µM (CDK9/Cyclin T1) [%],remaining activity at 0.1 µM (CDK7/cyclin H/MAT1) [%],remaining activity at 1 µM (CDK7/cyclin H/MAT1) [%],Concentration of maximum activation [1] [nM],Wound area ([2]; 100 nM),inhibition of migration (in words) ([2]; 100 nM),Wound area ([2]; 1000 nM)
"NC1CCC(Nc2nc(NCc3ccc(-c4ccccc4O)nc3)c3ncn(C4CCCC4)c3n2)CC1 (stereo not drawn) [BP20, N^2-(4-amino-cyclohexyl)-9-cyclopentyl-N^6-[6-(2-hydroxy-phenyl)-pyridin-3-ylmethyl]-9H-purine-2,6-diamine]",68,47.6,19.4,21.1,0.59,48,17.3,150,++,Significant inhibition of migration,++
"NC1CCC(Nc2nc(NCc3ccc(-c4cccs4)nc3)c3ncn(C4CCCC4)c3n2)CC1 (stereo not drawn) [BP30, N^2-(4-amino-cyclohexyl)-9-cyclopentyl-N^6-(6-thiophen-2-yl-pyridin-3-ylmethyl)-9H-purine-2,6-diamine]",206,26,4.31,19.6,1.78,47.7,16.5,120,++,Significant inhibition of migration,++
"NC1CCC(Nc2nc(NCc3ccc(-c4ccsc4)nc3)c3ncn(C4CCCC4)c3n2)CC1 (stereo not drawn) [BP35, N^2-(4-amino-cyclohexyl)-9-cyclopentyl-N^6-(6-thiophen-3-yl-pyridin-3-ylmethyl)-9H-purine-2,6-diamine]",278,65,8.7,32.8,2.39,64.1,33.5,230,0,,++
"NC1CCC(Nc2nc(NCc3ccc(-c4ccoc4)nc3)c3ncn(C4CCCC4)c3n2)CC1 (stereo not drawn) [BP36, N^2-(4-amino-cyclohexyl)-9-cyclopentyl-N^6-(6-furan-3-yl-pyridin-3-ylmethyl)-9H-purine-2,6-diamine]",131,31.9,2.95,15.4,1.68,49.1,17.3,125,+,,++
